Common to all, as to type: functional
Test [1] concerns the target Non-receptor tyrosine-protein kinase TYK2 (Homo sapiens, UniProt P29597).
Test [2] deals with T1, cGMP-dependent protein kinase 1 (Homo sapiens, UniProt Q13976).
T1 sequence (Q13976 whole entry): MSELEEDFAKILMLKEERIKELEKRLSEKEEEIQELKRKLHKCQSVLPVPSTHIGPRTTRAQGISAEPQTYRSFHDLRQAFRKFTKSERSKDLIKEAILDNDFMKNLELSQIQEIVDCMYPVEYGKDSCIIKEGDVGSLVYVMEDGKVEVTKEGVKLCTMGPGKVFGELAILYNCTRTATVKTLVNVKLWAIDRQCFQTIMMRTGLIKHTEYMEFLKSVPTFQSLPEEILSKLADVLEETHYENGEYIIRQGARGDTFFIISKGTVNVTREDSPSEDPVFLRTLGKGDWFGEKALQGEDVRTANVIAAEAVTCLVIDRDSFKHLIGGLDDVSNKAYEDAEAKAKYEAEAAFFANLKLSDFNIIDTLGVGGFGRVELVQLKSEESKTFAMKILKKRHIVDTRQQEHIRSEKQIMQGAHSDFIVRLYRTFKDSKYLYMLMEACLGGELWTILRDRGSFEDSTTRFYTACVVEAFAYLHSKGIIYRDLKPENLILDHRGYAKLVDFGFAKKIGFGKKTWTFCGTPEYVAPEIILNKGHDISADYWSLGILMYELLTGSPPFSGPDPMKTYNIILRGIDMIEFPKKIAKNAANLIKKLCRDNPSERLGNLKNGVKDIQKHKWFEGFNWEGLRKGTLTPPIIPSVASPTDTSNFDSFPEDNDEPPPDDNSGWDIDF

Test [3] addresses T2, 3-phosphoinositide-dependent protein kinase 1 (Homo sapiens, UniProt O15530).
T2 sequence (O15530 whole entry): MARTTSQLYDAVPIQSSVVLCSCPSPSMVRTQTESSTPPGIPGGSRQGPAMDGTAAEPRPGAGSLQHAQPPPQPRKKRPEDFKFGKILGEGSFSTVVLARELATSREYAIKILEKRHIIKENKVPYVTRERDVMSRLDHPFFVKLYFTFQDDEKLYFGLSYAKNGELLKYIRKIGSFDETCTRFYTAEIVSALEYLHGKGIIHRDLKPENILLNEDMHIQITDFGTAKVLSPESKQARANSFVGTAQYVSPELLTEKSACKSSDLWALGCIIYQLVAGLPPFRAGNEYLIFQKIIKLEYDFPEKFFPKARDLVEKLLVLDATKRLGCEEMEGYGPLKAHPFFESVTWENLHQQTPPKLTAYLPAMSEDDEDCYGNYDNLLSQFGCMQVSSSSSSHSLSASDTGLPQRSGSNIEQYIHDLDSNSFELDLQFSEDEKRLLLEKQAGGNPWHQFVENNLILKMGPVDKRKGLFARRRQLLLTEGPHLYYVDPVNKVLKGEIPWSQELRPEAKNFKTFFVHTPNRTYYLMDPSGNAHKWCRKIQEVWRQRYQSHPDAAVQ

Test [4] deals with T3, Mitogen-activated protein kinase kinase kinase kinase 2 (Homo sapiens, UniProt Q12851).
T3 sequence (Q12851 whole entry): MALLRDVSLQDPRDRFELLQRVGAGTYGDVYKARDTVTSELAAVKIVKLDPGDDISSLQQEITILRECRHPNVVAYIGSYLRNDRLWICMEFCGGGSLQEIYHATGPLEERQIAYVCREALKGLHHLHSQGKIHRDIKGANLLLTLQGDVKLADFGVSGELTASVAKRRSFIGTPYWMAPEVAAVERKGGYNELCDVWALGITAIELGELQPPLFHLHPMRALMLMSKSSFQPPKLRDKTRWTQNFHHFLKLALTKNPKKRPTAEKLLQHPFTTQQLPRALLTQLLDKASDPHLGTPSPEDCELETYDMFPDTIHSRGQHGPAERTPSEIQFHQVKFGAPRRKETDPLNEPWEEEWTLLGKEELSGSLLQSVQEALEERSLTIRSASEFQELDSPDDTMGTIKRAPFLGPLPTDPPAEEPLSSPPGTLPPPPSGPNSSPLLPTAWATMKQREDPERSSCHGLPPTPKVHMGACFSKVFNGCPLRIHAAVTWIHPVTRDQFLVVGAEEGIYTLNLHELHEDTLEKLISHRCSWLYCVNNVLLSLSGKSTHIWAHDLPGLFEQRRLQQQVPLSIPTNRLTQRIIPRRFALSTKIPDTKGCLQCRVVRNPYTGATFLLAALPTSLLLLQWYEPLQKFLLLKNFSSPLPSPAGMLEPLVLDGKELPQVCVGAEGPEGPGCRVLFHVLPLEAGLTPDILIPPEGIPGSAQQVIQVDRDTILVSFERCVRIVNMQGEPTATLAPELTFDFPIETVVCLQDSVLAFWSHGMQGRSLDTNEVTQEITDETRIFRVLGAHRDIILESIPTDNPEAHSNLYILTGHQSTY

The target in test [5] is Calcium/calmodulin-dependent protein kinase type 1 (Homo sapiens, UniProt Q14012).
Calcium/calmodulin-dependent protein kinase type 1, sequence (Q14012 whole entry): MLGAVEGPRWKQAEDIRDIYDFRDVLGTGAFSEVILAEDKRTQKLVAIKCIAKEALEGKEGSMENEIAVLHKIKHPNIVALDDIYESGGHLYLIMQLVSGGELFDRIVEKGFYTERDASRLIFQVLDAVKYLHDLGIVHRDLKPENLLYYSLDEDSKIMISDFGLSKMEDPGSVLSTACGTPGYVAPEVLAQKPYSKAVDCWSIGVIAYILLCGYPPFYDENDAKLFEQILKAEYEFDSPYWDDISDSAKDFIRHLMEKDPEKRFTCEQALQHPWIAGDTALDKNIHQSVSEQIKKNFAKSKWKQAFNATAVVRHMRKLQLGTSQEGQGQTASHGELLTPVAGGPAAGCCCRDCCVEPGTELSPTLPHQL

Active and inactive are the calls of the source. Some results are limits rather than exact numbers.

In general, Ki refers to a measure of affinity in units of concentration, obtained from inhibition or displacement. By pKi is commonly meant the negative decadic logarithm of the Ki, by convention in mol/L. A lower pKi goes with a high Ki.

Non-receptor tyrosine-protein kinase TYK2, sequence (P29597 whole entry): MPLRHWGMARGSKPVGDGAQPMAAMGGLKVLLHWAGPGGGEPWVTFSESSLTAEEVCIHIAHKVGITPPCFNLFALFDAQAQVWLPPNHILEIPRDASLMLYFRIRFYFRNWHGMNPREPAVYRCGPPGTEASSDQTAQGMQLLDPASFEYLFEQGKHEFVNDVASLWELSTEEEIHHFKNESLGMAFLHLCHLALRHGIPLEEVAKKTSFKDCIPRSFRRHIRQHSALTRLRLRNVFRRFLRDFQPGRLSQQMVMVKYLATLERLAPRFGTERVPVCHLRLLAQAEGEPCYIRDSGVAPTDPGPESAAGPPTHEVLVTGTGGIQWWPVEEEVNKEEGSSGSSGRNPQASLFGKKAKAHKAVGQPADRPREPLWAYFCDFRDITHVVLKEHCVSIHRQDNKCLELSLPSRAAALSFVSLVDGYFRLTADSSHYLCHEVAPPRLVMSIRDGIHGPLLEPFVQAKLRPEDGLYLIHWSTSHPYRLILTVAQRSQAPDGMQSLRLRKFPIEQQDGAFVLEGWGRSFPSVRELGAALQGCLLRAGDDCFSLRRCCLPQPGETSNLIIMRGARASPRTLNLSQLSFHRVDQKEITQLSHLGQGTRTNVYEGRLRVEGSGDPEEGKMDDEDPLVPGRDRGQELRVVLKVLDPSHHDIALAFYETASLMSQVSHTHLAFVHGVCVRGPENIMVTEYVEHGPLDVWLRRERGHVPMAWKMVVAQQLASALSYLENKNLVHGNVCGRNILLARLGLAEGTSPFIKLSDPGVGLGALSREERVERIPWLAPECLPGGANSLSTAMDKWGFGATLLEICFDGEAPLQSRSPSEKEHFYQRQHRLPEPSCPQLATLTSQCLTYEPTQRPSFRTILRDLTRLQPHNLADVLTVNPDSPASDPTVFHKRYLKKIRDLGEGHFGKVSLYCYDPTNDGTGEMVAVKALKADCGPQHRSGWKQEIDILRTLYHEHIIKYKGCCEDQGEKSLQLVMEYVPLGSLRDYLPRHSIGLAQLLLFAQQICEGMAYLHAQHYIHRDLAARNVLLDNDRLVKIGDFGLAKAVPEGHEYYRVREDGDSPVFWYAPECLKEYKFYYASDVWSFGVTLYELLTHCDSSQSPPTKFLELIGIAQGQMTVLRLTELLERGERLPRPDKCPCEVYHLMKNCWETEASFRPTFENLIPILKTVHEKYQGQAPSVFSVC

For the compound `NC(=O)c1cc(-c2ccnc(N)n2)[nH]c1-c1ccc(Cl)cc1Cl`, the Ki in test [1] was 794 nM (active); in test [2], 794 nM (active); in test [3], > 3980 nM (inactive); in test [4], 200 nM (active); in test [5] it was > 3980 nM (inactive). The negative-log Ki (pKi) was 6.1 in test [2] and 6.7 in test [4].

As for `NC(COc1cncc(-c2ccc3c(c2)C(=Cc2ccco2)C(=O)N3)c1)Cc1c[nH]c2ccccc12` (stereo unspecified), the Ki in test [1] is > 2000 nM (inactive); in test [2], 1.26 nM (active); in test [3], 50.1 nM (active); in test [4], 39.8 nM (active); in test [5] it was 1260 nM (active).

`Cc1ccc(-n2nc(C(C)(C)C)cc2NC(=O)Nc2ccc(OCCN3CCOCC3)c3ccccc23)cc1` [DORAMAPIMOD]: the Ki in test [1] is > 2000 nM (inactive); in test [3], > 3980 nM (inactive); in test [4] it was > 2510 nM (inactive); in test [5], > 7940 nM (inactive).
